{"source": "paper PMC7101335", "about": "“Aryl-alkyl-lysines: Novel agents for treatment of C. difficile infection” (Scientific Reports, 2020)", "key": {"[1]": {"system": "Clostridium difficile", "experiment": "Broth microdilution MIC against Clostridium difficile strains", "format": "cell-based", "conditions": "Clostridioides difficile", "experimental": "The broth microdilution assay was utilized following the Clinical and Laboratory Standards Institute (CLSI) guidelines with slight modifications. Briefly, C. difficile strains were grown on anaerobic blood agar plates (Becton Dickinson, BD) and suspended in brain heart infusion supplemented broth (Brain heart infusion medium, BD, supplemented with yeast extract, L-cysteine, Vitamin K1 and Hemin, Sigma) to achieve a bacterial concentration of ~10^5 CFU/ml. The bacterial suspension was seeded in 96-well plates containing drugs/compounds, in duplicate, at the required concentration. Plates were then incubated at 37 °C anaerobically for 48 hours. MICs reported are the lowest concentration of each agent that inhibited the visual growth of bacteria."}, "[2]": {"system": "E. faecalis", "experiment": "Broth microdilution MIC against E. faecalis strains", "format": "cell-based", "conditions": "Enterococcus faecalis, read-out: Minimum inhibitory concentration"}, "[3]": {"system": "E. faecium", "experiment": "Broth microdilution MIC against E. faecium strains", "format": "cell-based", "conditions": "Enterococcus faecium, read-out: Minimum inhibitory concentration"}, "[4]": {"system": "human ileocecal colorectal adenocarcinoma cell line (HRT-18)", "experiment": "Cytotoxicity, MTS assay, HRT-18 cells", "format": "cell-based", "conditions": "HRT-18 cells, 32 µg mL^−1, 2 hours, relative to DMSO", "experimental": "Briefly, ~2 × 10^4 cells suspended in 100 µL of RPMI-1640 supplemented with 10% horse serum were seeded in a 96-well plate and incubated at 37 °C with 5% CO2. The cells were cultured for 24 hours until reaching ~90% confluency. The cells were further incubated with the aforementioned concentrations of the compounds for 2 hours. Afterwards, culture media were discarded and the cells in each well were washed with PBS and 100 µL of cell culture media were added prior to addition of the assay reagent MTS 3-(4,5-dimethylthiazol-2-yl)-5-(3-carboxymethoxyphenyl)-2-(4-sulfophenyl)-2H-tetrazolium) (Promega). The plates were incubated for 4 hours at 37 °C in a humidified 5% CO2 atmosphere. The absorbance was recorded at 490 nm and the corrected absorbance readings (actual absorbance readings for each treatment subtracted from background absorbance) were taken using a kinetic ELISA microplate reader (SpectraMax i3x, Molecular Devices, Sunnyvale, CA, USA). The quantity of viable cells after treatment with each compound was expressed as a percentage of the control, DMSO. Asterisk (*) denotes a significant difference from the DMSO-treated cells using 2-way analysis of variance (ANOVA) followed by Dunnett’s pairwise comparison."}, "[5]": {"experiment": "Caco-2 bidirectional permeability assay", "format": "in vitro ADME, human", "conditions": "human, Caco-2, two hours", "experimental": "(§1) The Caco-2 bidirectional permeability assay was conducted as described in previous reports[29],[30],[41],[42]. The Caco-2 cell line is similar to human enterocytes and expresses P-glycoprotein and other relevant metabolic enzymes that affect absorption of orally-administered xenobiotics across the intestinal mucosa[34],[43],[44]. Caco-2 cells were grown in tissue culture flasks, trypsinized (by rinsing cells with phosphate-buffered saline and then treating with trypsin-EDTA for 5–10 minutes at 37 °C with 5% CO2 until cells detached), suspended in Dulbecco’s Modified Eagle Medium with 10% fetal bovine serum, 1% nonessential amino acids and penicillin-streptomycin, and then seeded onto wells of a Millipore 96-well Caco-2 plate. Cells were cultured at 37 °C with 5% CO2 until confluent (approximately three weeks) and media was changed at relevant time points. For Apical to Basolateral (A → B) permeability, the test article was added to the apical (A) compartment and the amount of permeation (Papp, as calculated below) to the basolateral (B) compartment was determined; for Basolateral to Apical (B → A) permeability, the test article was added to the B compartment and the amount of permeation to the A compartment was determined. […] Caco-2 cells were incubated with these buffers for two hours, and the receiver side buffer was removed for analysis by LC/MS/MS. To verify the tight junctions and integrity of Caco-2 cell monolayers, aliquots of the cell buffers were analyzed by fluorescence (Lucifer yellow transport ≤ 2%). Any deviations from control values are reported. Data are expressed as permeability (Papp) = (dQ/dt)/(C0A) where dQ/dt is the rate of permeation, C0 is the initial concentration of test agent, and A is the area of the monolayer."}, "[6]": {"system": "Caco-2 monolayer", "experiment": "Caco-2 bidirectional permeability assay", "format": "in vitro ADME, human", "conditions": "Caco-2 bidirectional", "experimental": "as §1"}, "[7]": {"system": "vancomycin-resistant and vancomycin-susceptible strains of Enterococcus", "experiment": "Broth microdilution MIC against Enterococcus strains (E. faecalis and E. faecium, summary in text)", "format": "cell-based", "conditions": "all E. faecalis and E. faecium strains tested, vancomycin-resistant and -sensitive"}, "[8]": {"system": "human erythrocytes", "parameters": "method as in PMID 24479371", "conditions": "concentration at which 50% of human erythrocytes are lysed; cited from earlier work"}}, "note": "Like-named read-outs stand apart in the source and are kept apart here."}
{"molecule": "CCCCCCCCCCN(Cc1cccc2ccccc12)C(=O)[C@@H](N)CCCCN", "note": "[NCK-10]", "values": [{"measurement": "MIC", "setting": "[1]; C. difficile Isolate 1 (NR-13427), read-out: Minimum inhibitory concentration", "result": 2, "unit": "µg/mL"}, {"measurement": "MIC", "setting": "[1]; C. difficile Isolate 2 (NR-13428), read-out: Minimum inhibitory concentration", "result": 1, "unit": "µg/mL"}, {"measurement": "MIC", "setting": "[1]; C. difficile Isolate 4 (NR-13430), read-out: Minimum inhibitory concentration", "result": 2, "unit": "µg/mL"}, {"measurement": "MIC", "setting": "[1]; C. difficile Isolate 6 (NR-13432), read-out: Minimum inhibitory concentration", "result": 1, "unit": "µg/mL"}, {"measurement": "MIC", "setting": "[1]; C. difficile Isolate 9 (NR-13435), read-out: Minimum inhibitory concentration", "result": 1, "unit": "µg/mL"}, {"measurement": "MIC", "setting": "[1]; C. difficile Isolate 10 (NR-13436), read-out: Minimum inhibitory concentration", "result": 1, "unit": "µg/mL"}, {"measurement": "MIC", "setting": "[1]; C. difficile P2 (NR-32883), read-out: Minimum inhibitory concentration", "result": 1, "unit": "µg/mL"}, {"measurement": "MIC", "setting": "[1]; C. difficile P4 (NR-32889), read-out: Minimum inhibitory concentration", "result": 2, "unit": "µg/mL"}, {"measurement": "MIC", "setting": "[1]; C. difficile P8 (NR-32888), read-out: Minimum inhibitory concentration", "result": 1, "unit": "µg/mL"}, {"measurement": "MIC", "setting": "[1]; C. difficile P13 (NR-32891), read-out: Minimum inhibitory concentration", "result": 2, "unit": "µg/mL"}, {"measurement": "MIC", "setting": "[1]; C. difficile P20 (NR-32896), read-out: Minimum inhibitory concentration", "result": 1, "unit": "µg/mL"}, {"measurement": "MIC", "setting": "[1]; C. difficile P21 (NR-32897), read-out: Minimum inhibitory concentration", "result": 1, "unit": "µg/mL"}, {"measurement": "MIC", "setting": "[1]; C. difficile P29 (NR-32903), read-out: Minimum inhibitory concentration", "result": 1, "unit": "µg/mL"}, {"measurement": "MIC", "setting": "[1]; C. difficile strains P8, P13 and Isolate 10", "result": "1 to 2", "unit": "µg/mL"}, {"measurement": "MIC", "setting": "[1]; across all tested strains of C. difficile", "result": "0.5 to 2", "unit": "µg/mL"}, {"measurement": "MIC", "setting": "[1]; most strains of C. difficile tested, read-out: MIC", "result": "≤ 1", "unit": "µg/mL"}, {"measurement": "MIC", "setting": "[1]; read-out: Minimum inhibitory concentration, C. difficile Isolate 5 (NR-13431)", "result": "≤ 0.5", "unit": "µg/mL"}, {"measurement": "MIC", "setting": "[1]; read-out: Minimum inhibitory concentration, C. difficile P15 (NR-32892)", "result": "≤ 0.5", "unit": "µg/mL"}, {"measurement": "MIC", "setting": "[1]; the rest of the C. difficile strains", "result": 1, "unit": "µg/mL"}, {"measurement": "MIC", "setting": "[2]; E. faecalis B3196", "result": 2, "unit": "µg/mL"}, {"measurement": "MIC", "setting": "[2]; E. faecalis B3286", "result": 2, "unit": "µg/mL"}, {"measurement": "MIC", "setting": "[2]; E. faecalis B3336", "result": 2, "unit": "µg/mL"}, {"measurement": "MIC", "setting": "[2]; E. faecalis SF24397", "result": 2, "unit": "µg/mL"}, {"measurement": "MIC", "setting": "[2]; E. faecalis SF28073 (vancomycin-resistant)", "result": 2, "unit": "µg/mL"}, {"measurement": "MIC", "setting": "[3]; E. faecium E417 (vancomycin-resistant)", "result": "< 1", "unit": "µg/mL"}, {"measurement": "MIC", "setting": "[3]; E. faecium E1071", "result": 2, "unit": "µg/mL"}, {"measurement": "MIC", "setting": "[3]; E. faecium UAA714", "result": 2, "unit": "µg/mL"}, {"measurement": "cells survived", "setting": "[4]", "result": 60, "unit": "%"}, {"measurement": "Papp A→B at 2 h", "setting": "[5]; apical (pH 6.5) to basolateral (pH 7.4)", "result": "< 0.01", "unit": "×10⁻⁶ cm/s"}, {"measurement": "Papp B→A at 2 h", "setting": "[5]; basolateral to apical", "result": 3.26, "unit": "×10⁻⁶ cm/s"}, {"measurement": "Notes (permeability class)", "setting": "[6]", "result": "Limited permeability"}, {"measurement": "MIC", "setting": "[7]", "result": "≤ 2", "unit": "µg/mL"}, {"measurement": "hemolytic concentration 50 (HC50)", "setting": "[8]", "result": 95, "unit": "µg/mL"}]}
